What was measured:
PC3 cells = experiment: MTT cell proliferation assay, PC3; assay type: cell-based; conditions: Homo sapiens, PC-3, 48 hr
Excerpt: BI2536 was purchased from Selleck (Selleck, USA).

HeLa cells = experiment: FITC-Annexin V/PI apoptosis assay, HeLa; assay type: cell-based, human
Excerpt: Staining with Annexin V–FITC and propidium iodide (PI) is commonly used to distinguish apoptotic, necrotic, and dead cells. PI is impermeant to live cells and apoptotic cells at early stages, but it stains dead cells and apoptotic cells at late stages through its binding to the nucleic acids. Apoptotic cells in early or late stages are stained positively for Annexin V-FITC that binds to phosphotidylserine. We used FACS analysis to determine the proportion of HeLa cells positive for Annexin V-FITC (FITC), PI, or both. The HeLa cells with PI^−/PI^+ FITC^+ were counted as apoptotic cells (Figure 5). […] However, 16.19% (3.96+12.23) of HeLa cells became FITC positive after treatment with 1.05 µM DH281 for 48 hr. The treatment with 5.25 µM DH281 induced apoptosis among 89.6% (89.51+0.09) of HeLa cells (Table 5). […] In contrast to HeLa cells, the induction of apoptosis by DH281 was much less efficient in non-cancer MRC5 cells (Table 5). Therefore, we conclude that the treatment with compounds DH281, DH285 and DH287 induces substantial apoptosis in HeLa cells, but non-cancer MRC5 cells are much less sensitive to the treatment. The distinct apoptotic responses of HeLa and MRC5 cells to beta-carboline compounds could explain the selectivity of PLK1 inhibitors toward cancer cells.
HeLa cells were either treated with 0, 0.21, 1.05 and 5.25 µM of DH281, DH285 and DH287 for 48 hr, or treated with 1.21 µM compounds for 24, 48 and 72 hr, while MRC5 cells were exposed to compounds at 0, 0.21, 1.05, and 5.25 µM for 48 hr. The cultured cells were harvested, washed three times with PBS, and resuspended in 500 µl binding buffer (10 mM Hepes/sodium hydroxide (pH7.4), 140 mM sodium chloride, and 2.5 mM CaCl2). Then 5 µl FITC-labeled Annexin V (Zhongshan JinQiao Biotechnology Ltd., Beijing) was added and the cells were incubated in the dark for 10 min. We added 5 µl of propidium iodide (PI) (10 µg/ml in binding buffer) to each sample before flow cytometry analysis.

[1] = test system: Wee1 protein levels in HeLa cells; experiment: Wee1 protein level (Western blotting); assay type: cell-based, human; conditions: 1.21 µM, 24 hr, compared to control cells
Method: (§1) As the inhibitory kinase for cyclin-dependent kinase (CDK), Wee1 is one of the substrates of PLK1 and this phosphorylation stimulates Wee1 degradation. We expect that the inhibition of PLK1 impairs the phosphorylation of Wee1, thereby resulting in elevated Wee1 protein levels. To test this possibility, we examined the protein levels of Wee1 in HeLa cells after treatment with 1.21 µM beta-carboline compounds for 24 hr. […] PLK1 also phosphorylates cyclin B1 and this phosphorylation promotes the nuclear localization of cyclin B1 [36]. After treatment with these beta-carboline compounds, a slight increase of cyclin B1 protein was observed (Figure 6B), and this increase could be a consequence of accumulation of cells in G2/M phase. However, the change of cyclin B1 levels is much less significant compared to the increase of Wee1 levels after treatment with these compounds.
(§2) HeLa cells were incubated with or without 1.21 µM DH281, DH285 and DH287 for 24 hr. The cells were washed twice with cold 1×PBS and lysed in RAPI buffer (Applygen technologies Inc.) for 30 min and centrifuged at 14,000 rpm for 20 min at 4°C. We separated 15 µl of total protein (1 µg/ µl) with 12% SDS-PAGE gels and transferred the proteins to PVDF membrane. […] The protein bands were detected using ECL System (Piscataway, New Jersey, USA). […]

[2] = test system: four cancer cell lines (HepG2, MG63, HeLa and PC3); experiment: Growth inhibition of four cancer cell lines; assay type: cell-based, Human
Excerpt: In order to find more efficient antitumor small molecules targeting PLK1, we synthesized additional 18 beta-carboline compounds and the structures of these compounds are shown in Figure 1. The growth inhibition of four cancer cell lines (HepG2, MG63, HeLa and PC3) by these compounds was examined. […] We selected DH281, DH285 and DH287 for further studies.

[3] = test system: cyclin B1 protein in HeLa cells; experiment: Cyclin B1 protein level (Western blotting, FACS); assay type: cell-based, human; conditions: 1.21 µM, 24 hr
Method: as §1, §2

MRC5 cells = conditions: read-out: IC50 MRC5; MTT, 48 hr, non-cancer cells
Method: All the beta-carboline derivatives were provided by Xinjiang Huashidan Pharmaceutical Co. Ltd. The culture media and fetal bovine serum (FBS) were purchased from Hyclone (Hyclone Laboratories Inc., USA). […] All the cell lines were obtained from the Cell Culture Centre, Institute of Basic Medical Science, Chinese Academy of Medical Science and incubated at 37°C supplied with 5% CO2. HeLa cells were grown in standard DMEM with 10% FBS.
MRC5, HeLa, HepG2, PC3 and MG63 cells were seeded at 3000–6000 cells/well (200 µl/well) in a 96-well plate and incubated overnight. Then different concentrations of compounds were added into the cell cultures with a final concentration of 0.1% DMSO and incubated for an additional 48 hr. After that, 22 µl MTT solution (5 mg/ml) was added into each well and incubated at 37°C for 4 hr.

Row | SMILES | IC50 (PC3 cells) [nM] | PI+ FITC+ (late apoptotic cells) (HeLa cells; 0.21 µM, 48 hr) [%] | PI+ FITC− (dead cells) (HeLa cells; 0.21 µM, 48 hr) [%] | PI− FITC+ (early apoptotic cells) (HeLa cells; 0.21 µM, 48 hr) [%] | PI− FITC− (live cells) (HeLa cells; 0.21 µM, 48 hr) [%] | PI+ FITC+ (late apoptotic cells) (HeLa cells; 1.05 µM, 48 hr) [%] | PI+ FITC− (dead cells) (HeLa cells; 1.05 µM, 48 hr) [%] | PI− FITC+ (early apoptotic cells) (HeLa cells; 1.05 µM, 48 hr) [%] | PI− FITC− (live cells) (HeLa cells; 1.05 µM, 48 hr) [%] | PI+ FITC+ (late apoptotic cells) (HeLa cells; 1.21 µM, 24 hr) [%] | PI+ FITC− (dead cells) (HeLa cells; 1.21 µM, 24 hr) [%] | PI− FITC+ (early apoptotic cells) (HeLa cells; 1.21 µM, 24 hr) [%] | PI− FITC− (live cells) (HeLa cells; 1.21 µM, 24 hr) [%] | PI+ FITC+ (late apoptotic cells) (HeLa cells; 1.21 µM, 48 hr) [%] | PI+ FITC− (dead cells) (HeLa cells; 1.21 µM, 48 hr) [%] | PI− FITC+ (early apoptotic cells) (HeLa cells; 1.21 µM, 48 hr) [%] | PI− FITC− (live cells) (HeLa cells; 1.21 µM, 48 hr) [%] | PI+ FITC+ (late apoptotic cells) (HeLa cells; 1.21 µM, 72 hr) [%] | PI− FITC+ (early apoptotic cells) (HeLa cells; 1.21 µM, 72 hr) [%] | PI− FITC− (live cells) (HeLa cells; 1.21 µM, 72 hr) [%] | also measured
1 | Cc1c2c(cc[n+]1Cc1ccccc1)c1ccc(OCc3ccc(F)cc3)cc1n2CCCc1ccccc1 [DH281] | 940 ± 230 | 3.22 | 3.24 | 0.97 | 92.57 | 3.96 | 10.22 | 12.23 | 73.59 | 10.65 | 2.52 | 1.42 | 85.41 | 8.91 | 3.31 | 16.20 | 71.58 | 5.97 | 39.54 | 53.08 | FITC positive (apoptotic) cells, early + late (HeLa cells; 1.05 µM, 48 hr): 16.19%; PI+ FITC− (dead cells) (HeLa cells; 1.21 µM, 72 hr): 1.41%; FITC positive (apoptotic) cells, early + late (HeLa cells; 5.25 µM, 48 hr): 89.6%; PI+ FITC+ (late apoptotic cells) (HeLa cells; 5.25 µM, 48 hr): 0.09%; PI+ FITC− (dead cells) (HeLa cells; 5.25 µM, 48 hr): 0.37%; PI− FITC+ (early apoptotic cells) (HeLa cells; 5.25 µM, 48 hr): 89.51%; PI− FITC− (live cells) (HeLa cells; 5.25 µM, 48 hr): 10.03%; Wee1 protein level [1]: high levels of Wee1 protein; antitumor activity (growth inhibition) [2]: very strong growth inhibition; cyclin B1 protein level [3]: did not show a significant increase of cyclin B1 protein
2 | Cc1c2c(cc[n+]1Cc1ccccc1)c1ccc(OCc3ccccc3)cc1n2Cc1ccccc1 [DH287] | 2860 ± 190 | 2.16 | 3.48 | 1.12 | 93.25 | 5.20 | 9.81 | 7.20 | 77.8 | 10.88 | 3.56 | 10.39 | 75.17 | 8.31 | 7.05 | 25.70 | 58.94 | 1.19 | 55.98 | 38.27 | PI+ FITC+ (late apoptotic cells) (HeLa cells; 5.25 µM, 48 hr): 5.58%; PI+ FITC− (dead cells) (HeLa cells; 5.25 µM, 48 hr): 8.71%; PI− FITC+ (early apoptotic cells) (HeLa cells; 5.25 µM, 48 hr): 65.36%; PI− FITC− (live cells) (HeLa cells; 5.25 µM, 48 hr): 20.35%; Wee1 protein level [1]: high levels of Wee1 protein; antitumor activity (growth inhibition) [2]: very strong growth inhibition; cyclin B1 protein level [3]: did not show a significant increase of cyclin B1 protein; IC50 (MRC5 cells): 3060 ± 690 nM

— publication PMC3463587, “A Series of Beta-Carboline Derivatives Inhibit the Kinase Activity of PLKs” (PLoS ONE, 2012)
